Data set [1] concerns Type-17 collagen. The note with it: eft-400 skin model.
Experimental: (§1) A tissue containing DMSO was prepared as a control.
(§2) The lysates of cultured tissue were subjected to western blotting using an anti-Type-17 collagen antibody (ab95123, Abcam).
The next data set in a line: physchem. The note with it: distilled water.
Data set [2] relates to Type-17 collagen. Kind of data set: Western blotting of Type-17 collagen protein production in skin model cells. The note with it: Homo sapiens, 168 h, read-out: expression amount of Type-17 collagen, increase in comparison with the control. Background: A western blot detects proteins with antibodies after separation by electrophoresis.
Experimental: as §1, §2
Data set [3] is described as follows: Water solubility test in distilled water.
Experimental: (§3) A test for confirming water solubility of the pterostilbene glycoside described above was performed. More specifically, solubility in 100 ml of distilled water at room temperature was measured. Pterostilbene (aglycone) was used as a control.

Values after ≈ are worked out from the molar mass of the structure shown.

Experimental for physchem: as §3

Broadly, the solubility is the concentration that dissolves in the medium under given conditions. A high value points to a readily soluble substance. On to `COc1cc(/C=C/c2ccc(O[C@@H]3O[C@H](CO)[C@@H](O[C@H]4O[C@H](CO)[C@@H](O)[C@H](O)[C@H]4O)[C@H](O)[C@H]3O)cc2)cc(OC)c1` [pterostilbene diglycoside], for which the “amount of Type-17 collagen contained in skin model cells, increase compared with the control (Ctrl)” value in the data set on Type-17 collagen [1] turned out to be 1.2 times. Further, the solubility in “physchem” was around 13 µg/mL (≈ 22.4 µM).
`COc1cc(/C=C/c2ccc(O[C@@H]3O[C@H](CO)[C@@H](O)[C@H](O)[C@H]3O)cc2)cc(OC)c1` [pterostilbene monoglycoside] registered a solubility in “physchem” of around 60 µg/mL (≈ 143 µM). Moreover, in the data set on Type-17 collagen [2], the fold induction at 25 µM was around 1.4 and the fold induction at 50 µM is around 1.6.
On to `COc1cc(/C=C/c2ccc(O[C@@H]3O[C@H](CO)[C@@H](O[C@H]4O[C@H](CO)[C@@H](O[C@H]5O[C@H](CO)[C@@H](O)[C@H](O)[C@H]5O)[C@H](O)[C@H]4O)[C@H](O)[C@H]3O)cc2)cc(OC)c1` [pterostilbene triglycoside], for which the “amount of Type-17 collagen contained in skin model cells, increase compared with the control (Ctrl)” value with Type-17 collagen [1] is recorded as 1.6 times. The solubility in “physchem” is around 300000 µg/mL (≈ 404000 µM).
Consider `COc1cc(/C=C/c2ccc(O)cc2)cc(OC)c1` [pterostilbene, Pterostilbene], for which the solubility in data set [3] was around 5 µg/mL (≈ 19.5 µM). Also, in the data set on Type-17 collagen [2], the fold induction at 25 µM is around 1.1 and the fold induction at 50 µM is around 1.4.

(Values after EP3492067A1, “TYPE-17 COLLAGEN PRODUCTION PROMOTER” (Tomoike Industrial (H.K.) Limited, priority 2016, dated 2018).)
